Results taken from patent publication US5116822A, “Therapeutic application of dideoxycytidinene” (priority 1990, dated 1992).

Experiments:
[1] = system: HIV-infected ATH8 cells / human lymphoid cell lines; conditions: compared with corresponding saturated derivatives; cited from earlier work
HIV [2] = conditions: cited from earlier work
HIV [3] = experiment: microbe, parasite or virus in culture; type: cell-based
HIV [4] = experiment: Protection against HIV replication in MT-4 cells; type: cell-based; conditions: for inhibition at 0.1 µM: Human immunodeficiency virus 1, MT4, 0.1 μM
HIV [5] = experiment: microbe, parasite or virus in culture; type: cell-based; conditions: Human immunodeficiency virus 1, MT4, read-out: % Inhibition of viral antigen expression
HIV [6] = experiment: microbe, parasite or virus in culture; type: cell-based; conditions: for EC50: Human immunodeficiency virus 1, ATH-8, read-out: EID50 for inhibition of HIV cytopathogenicity
[7] = system: herpes simplex virus type 1; experiment: Antiviral activity against other viruses; type: cell-based; conditions: Human alphaherpesvirus 1, HeLa, Vero or PRK cell cultures, read-out: 50% effective inhibitory dose (EID50)
[8] = system: herpes simplex virus type 2; experiment: Antiviral activity against other viruses; type: cell-based; conditions: Human alphaherpesvirus 2, HeLa, Vero or PRK cell cultures, read-out: 50% effective inhibitory dose (EID50)
vaccinia virus = experiment: microbe, parasite or virus in culture; type: cell-based; conditions: Orthopoxvirus vaccinia, read-out: 50% effective inhibitory dose (EID50)
[9] = system: vesicular stomatitis virus; experiment: microbe, parasite or virus in culture; type: cell-based; conditions: read-out: 50% effective inhibitory dose (EID50)
Sindbis virus = experiment: Antiviral activity against other viruses; type: cell-based; conditions: HeLa, Vero or PRK cell cultures, read-out: 50% effective inhibitory dose (EID50)
Coxsackie B4 virus = experiment: Antiviral activity against other viruses; type: cell-based; conditions: Enterovirus B, HeLa, Vero or PRK cell cultures, read-out: 50% effective inhibitory dose (EID50)
polio virus type 1 = experiment: organism not typed; type: cell-based; conditions: read-out: 50% effective inhibitory dose (EID50)
reovirus type 1 = experiment: Antiviral activity against other viruses; type: cell-based; conditions: Mammalian orthoreovirus 1, HeLa, Vero or PRK cell cultures, read-out: 50% effective inhibitory dose (EID50)
[10] = system: parainfluenza virus type 3; experiment: Antiviral activity against other viruses; type: cell-based; conditions: Human respirovirus 3, HeLa, Vero or PRK cell cultures, read-out: 50% effective inhibitory dose (EID50)
[11] = system: DNA viruses and RNA viruses; experiment: Antiviral activity against other viruses, overall statement; type: cell-based; conditions: in words
FM3A cells = experiment: Cytostatic effect (inhibition of cell proliferation); type: cell-based, murine; conditions: Mus musculus, read-out: IC50 (50%-inhibitory concentration, cell proliferation)
Description: (§1) The compounds ddeCyd and ddCyd were evaluated for their cytostatic effect against a series of murin and human cell lines. This was based upon measuring the inhibition of cell proliferation according to the procedures described by De Clercq et al. in Mol.Pharmacol. 19, 321-330 (1981).
(§2) The following cell lines were used: murine leukemia L1210 cells, designated L1210/0; murine mammary carcinoma FM3A cells; human B-lymphoblast Raji cells; human T-lymphoblast Molt/4F cells; human T4 -lymphocyte ATH8 cells and human T4 -lymphocyte MT-4 cells.

L1210/0 cells = experiment: as above; type: cell-based, murine; conditions: Mus musculus, read-out: IC50 (50%-inhibitory concentration, cell proliferation)
Description: as §1, §2

ATH8 cells = experiment: as above; type: cell-based; conditions: Homo sapiens, ATH-8, read-out: IC50 (50%-inhibitory concentration, cell proliferation)
Description: as §1, §2

MT-4 cells = experiment: as above; type: cell-based; conditions: Homo sapiens, MT4, read-out: IC50 (50%-inhibitory concentration, cell proliferation)
Description: as §1, §2

Molt/4F cells = experiment: as above; type: cell-based; conditions: Homo sapiens, read-out: IC50 (50%-inhibitory concentration, cell proliferation)
Description: as §1, §2

Raji cells = experiment: as above; type: cell-based; conditions: Homo sapiens, read-out: IC50 (50%-inhibitory concentration, cell proliferation)
Description: as §1, §2

SMILES	protection of HIV-infected ATH8 cells and/or cytostatic activity against human lymphoid cell lines [1]	antiviral potency upon prolonged exposure (HIV [3])	inhibition at 0.1 µM (HIV [4]) [%]	inhibition at 0.1 µM (HIV [5]) [%]	inhibition at 0.5 µM (HIV [5]) [%]	inhibition at 2 µM (HIV [5]) [%]	inhibition at 5 µM (HIV [5]) [%]	inhibition at 20 µM (HIV [5]) [%]	EC50 (HIV [6]) [µM]	EC50 [7] [µM]	EC50 [8] [µM]	EC50 (vaccinia virus) [µM]	EC50 [9] [µM]	EC50 (Sindbis virus) [µM]	EC50 (Coxsackie B4 virus) [µM]	EC50 (polio virus type 1) [µM]	EC50 (reovirus type 1) [µM]	EC50 [10] [µM]	antiviral effect against other (non-oncogenic RNA and DNA) viruses [11]	IC50 (FM3A cells) [µM]	other results
Nc1ncnc2c1ncn2[C@H]1C=C[C@@H](CO)O1 [2',3'-unsaturated 2',3'-dideoxyadenosine]	significantly less protective against HIV-infected ATH8 cells and/or considerably more cytostatic against human lymphoid cell lines																				
Cc1cn([C@H]2C=C[C@@H](CO)O2)c(=O)[nH]c1=O [2',3'-unsaturated 2',3'-dideoxythymidine]	significantly less protective against HIV-infected ATH8 cells and/or considerably more cytostatic against human lymphoid cell lines																				
Cc1cn([C@H]2C[C@H](N=[N+]=[N-])[C@@H](CO)O2)c(=O)[nH]c1=O [azidothymidine, 3'-azido-2',2'-dideoxythymidine]																					inhibition of HIV replication (HIV [2]; lymphocyte cultures): potent inhibitor of HIV replication
Nc1ccn([C@H]2CC[C@@H](CO)O2)c(=O)n1 [ddCyd, 2',3'-dideoxycytidine, reference compound]		without decrease upon prolonged exposure	75	70	96	97	97	96	0.1 to 0.3	> 100	> 100	> 100	> 100	> 100	> 100	> 100	> 100	> 100	neither ddeCyd nor ddCyd demonstrated any significant antiviral effect	> 2370	protection of ATH8 cells (HIV [3]; 0.5 μM, ATH8 cells, no decrease upon prolonged exposure): completely protected; inhibition at 0.1 µM (HIV [3]; Human immunodeficiency virus 1, ATH-8, 0.1 μM, ATH8 cells, no decrease upon prolonged exposure, read-out: protection against HIV replication in ATH8 cells): 75%; protection of MT-4 cells (HIV [4]; 0.5 μM, in words): completely protected; IC50 (L1210/0 cells): 320 µM; IC50 (ATH8 cells): 35 µM; IC50 (MT-4 cells): 35 µM; IC50 (Molt/4F cells): 17 µM; IC50 (Raji cells): 12 µM; concentration effecting complete antiviral protection (HIV [2]; in vitro): 0.5 to 1.0 µM
Nc1ccn([C@H]2C=C[C@@H](CO)O2)c(=O)n1 [ddeCyd, 2',3'-didehydro-2'-3'-dideoxycytidine]		decrease in antiviral potency	28	20	85	98	98	96	0.1 to 0.3	> 100	> 100	> 100	> 100	> 100	> 100	> 100	> 100	> 100	neither ddeCyd nor ddCyd demonstrated any significant antiviral effect	1160	protection of cells against destruction by the virus (HIV [3]): almost complete protection; protective effect at a longer time interval (HIV [3]; 10 days (vs 7 days), ATH8 cells): somewhat lower; inhibition at 0.1 µM (HIV [3]; Human immunodeficiency virus 1, ATH-8, 168 h, read-out: protection of cells against destruction by the virus): ~40%; EC (optimum protection) (HIV [3]; Human immunodeficiency virus 1, ATH-8, 240 h, 10 days, ATH8 cells, read-out: concentration for optimum protection): ~2 µM; inhibition at 0.5 µM (HIV [4]; Human immunodeficiency virus 1, MT4, 0.5 μM): 91%; inhibition at 0.02 µM (HIV [5]; 0.02 μM): 8%; effectiveness in inhibiting cytopathogenicity and antigen expression of HIV (HIV [6]; ATH 8 and MT-4 cells, compared with 2',3'-dideoxycytidine): almost as effective as 2',3'-dideoxycytidine; fold by which HIV-inhibiting concentrations are below any toxicity for the host cells (HIV [6]; T-cells): at least 100 fold; inhibition of human immunodeficiency virus in cell cultures (HIV [6]; in words): potent and selective inhibitor of human immunodeficiency virus in cell cultures; antiviral effect against other (non-oncogenic RNA and DNA) viruses ([11]; listed as 2',3'-dideoxycytidinene): not show any inhibitory effect; IC50 (L1210/0 cells): 196 µM; IC50 (ATH8 cells): 30 µM; IC50 (MT-4 cells): 15 µM; IC50 (Molt/4F cells): 20 µM; IC50 (Raji cells): 13 µM
